# Target: T1, Or69aB (Drosophila melanogaster, UniProt P82985)
# T1 construct: gene Or69a; full ORF cloned from antennal cDNA into pUAS.g-HA.attB; expressed in Dhalo ab3A empty neurons (Or22a-Gal4), endogenous Orco; with Odorant receptor coreceptor
# T1 sequence (P82985 1-393): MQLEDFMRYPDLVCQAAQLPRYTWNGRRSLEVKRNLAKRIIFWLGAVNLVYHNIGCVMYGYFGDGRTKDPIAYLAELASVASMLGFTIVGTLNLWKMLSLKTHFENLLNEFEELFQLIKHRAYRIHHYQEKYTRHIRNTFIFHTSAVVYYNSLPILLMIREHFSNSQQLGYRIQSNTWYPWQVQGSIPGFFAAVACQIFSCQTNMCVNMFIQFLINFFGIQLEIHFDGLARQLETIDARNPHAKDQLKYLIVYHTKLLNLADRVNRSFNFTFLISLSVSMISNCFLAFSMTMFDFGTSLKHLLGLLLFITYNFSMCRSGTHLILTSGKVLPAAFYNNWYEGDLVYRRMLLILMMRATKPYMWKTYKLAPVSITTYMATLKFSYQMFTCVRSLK
# T1 sequence (Q9VNB5 1-486 partner): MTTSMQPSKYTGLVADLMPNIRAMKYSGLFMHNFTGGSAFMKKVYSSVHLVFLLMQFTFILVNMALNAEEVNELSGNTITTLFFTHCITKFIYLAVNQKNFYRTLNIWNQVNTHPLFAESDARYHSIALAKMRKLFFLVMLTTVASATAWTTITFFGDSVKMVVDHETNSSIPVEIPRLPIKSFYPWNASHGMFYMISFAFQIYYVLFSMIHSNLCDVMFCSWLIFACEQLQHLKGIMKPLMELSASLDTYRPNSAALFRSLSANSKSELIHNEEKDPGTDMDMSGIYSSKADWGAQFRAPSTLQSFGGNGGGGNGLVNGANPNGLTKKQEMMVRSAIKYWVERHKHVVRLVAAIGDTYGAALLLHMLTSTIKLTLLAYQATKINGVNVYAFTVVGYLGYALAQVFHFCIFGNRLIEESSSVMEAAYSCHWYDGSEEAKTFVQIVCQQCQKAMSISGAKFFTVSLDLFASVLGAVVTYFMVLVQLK
# Assay: single sensillum recording, empty ab3A neuron
# Format: cell-based
# Conditions: 10 ug on filter paper, 0.5 s puff; activation (agonist)
row,Compound,SSR response (spikes/s)
1,C=C(C)[C@H]1CC=C(C)C(=O)C1 [(S)-carvone],Or69aB responds best to both isomers of carvone
2,"C=C(C)[C@@H]1CC=C(C)C(=O)C1 [compound 8, (R)-carvone]","(R)-carvone, which elicited the strongest Or69aB response"
3,"CCCCCC/C=C\CCC=O [compound 10, (Z)-4-undecenal]","Or69aB responds best to both isomers of carvone, followed by Z4-11Al"

# Target: T2, Or69aA (Drosophila melanogaster, UniProt Q9VU27)
# T2 construct: gene Or69a; full ORF cloned from antennal cDNA into pUAS.g-HA.attB; expressed in Dhalo ab3A empty neurons (Or22a-Gal4), endogenous Orco; with Odorant receptor coreceptor
# T2 sequence (Q9VU27 1-393): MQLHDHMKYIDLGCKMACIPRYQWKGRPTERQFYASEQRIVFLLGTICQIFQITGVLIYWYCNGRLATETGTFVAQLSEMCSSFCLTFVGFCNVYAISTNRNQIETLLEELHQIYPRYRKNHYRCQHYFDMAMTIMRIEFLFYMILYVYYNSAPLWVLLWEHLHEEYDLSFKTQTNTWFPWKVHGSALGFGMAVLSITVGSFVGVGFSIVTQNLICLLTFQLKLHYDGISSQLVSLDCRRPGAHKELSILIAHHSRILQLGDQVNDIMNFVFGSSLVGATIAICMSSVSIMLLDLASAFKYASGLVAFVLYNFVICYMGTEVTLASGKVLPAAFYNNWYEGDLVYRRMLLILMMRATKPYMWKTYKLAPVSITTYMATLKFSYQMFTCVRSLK
# T2 sequence (Q9VNB5 1-486 partner): T1 sequence (Q9VNB5 1-486 partner)
# Assay: single sensillum recording, empty ab3A neuron
# Format: cell-based
# Conditions: 10 ug on filter paper, 0.5 s puff; activation (agonist)
row,Compound,SSR response (spikes/s)
1,C=C[C@@](C)(O)CCC=C(C)C [(S)-linalool],The most active ligands (S)-α-terpineol and (S)- and (R)-linalool
2,"CC1=CC[C@@H](C(C)(C)O)CC1 [compound 1, (S)-α-terpineol]",The most active ligands (S)-α-terpineol and (S)- and (R)-linalool
3,"C=C[C@](C)(O)CCC=C(C)C [compound 4, (R)-linalool]",The most active ligands (S)-α-terpineol and (S)- and (R)-linalool
